Reference: patent publication US8889683B2, “Substituted quinoxalines as inhibitors of fatty acid binding protein” (Merck Sharp & Dohme Corp., priority 2010, dated 2014)
pKd: −log10 of the molar value.

These compounds were tested against FABP4 (Homo sapiens, UniProt P15090) (assay: TdF-based ligand binding affinity (FABP inhibitory activity assay)). Details: TdF-based ligand binding affinity constant.
Text: Theoretical basis for TdF-based ligand binding affinity constant
The derivation of TdF-based ligand binding affinity constant (Kd) followed closely those previously formulated by Brandts and Lin, Biochemistry 29 (1990) 6927-6940. In brief, the binding constant of the ligand at the Tm is expressed as below: […]
where T0 is the midpoint of unfolding for unliganded protein and Tm is the midpoint of unfolding in presence of ligand. [LTm] is free ligand at Tm. The ΔHu and ΔCpu are the enthalpy of unfolding and heat capacity change of unfolding for the protein respectively. The ΔCPu is proportional to the size of protein and is an approximate quantity in the above equation (empirically, ΔCpu=(MW of protein/115)*14 cal/mol*K). Following algorithm derived by Mayhood et al, (Analytical Biochemistry 345 (2005) 187-197), the T0 and ΔHu can be determined separately from nonlinear regression fitting the temperature dependent protein alone curve to the following equation: […]
The nonlinear regression fitting in general readily reaches convergence by properly constraining the initial values for the fitting parameters (e.g. the initial “guess” for the ΔHu was constrained to 120 kcal/mol; initial Yn and mr, were set to 1 and zero to best represent the melting curve along the low temperature region; negative slope of −0.5 was initially chosen for mu; initial Tm was also constrained to 50° C.).
(see Brandts et al and Mayhood et al, shown above) where ΔHL (T) is the van't Hoff enthalpy of ligand binding at temperature T and ΔCpL is the heat capacity upon ligand binding. For simplicity, the ΔCpL and ΔHL (T) were set to zero and −7 kcal/mol respectively. (The ΔCpL accounts for minimal portion of total protein-ligand binding energetics and is therefore set to zero (For example, see Hossein Naghibi et al, Proc. Natl. Acad. Sci. 92, 5597-5599 (1995), where ΔCpL was estimated to ˜2% of ΔHL at 25° C. obtained from calorimetric study of binding RNase A and 2′-CMP)).

Chain of FABP4 (P15090 whole entry): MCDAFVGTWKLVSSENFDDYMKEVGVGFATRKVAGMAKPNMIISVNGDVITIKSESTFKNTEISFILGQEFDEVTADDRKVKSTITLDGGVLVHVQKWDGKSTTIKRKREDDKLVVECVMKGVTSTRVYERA

pKd | SMILES
7.20 | O=C(c1nc2cc(Cl)c(Cl)cc2nc1O)N1CCCC1Cc1cccc(Cl)c1 (racemic) [Compound 1-13, (+/−)-[2-(3-Chlorobenzyl)pyrrolidin-1-yl](6,7-dichloro-3-hydroxyquinoxalin-2-yl)methanone]
8.70 | O=C(c1nc2cccc(C(F)(F)F)c2nc1O)N1CCCC1Cc1cccc(Cl)c1 (racemic) [Compound 1-30, (+/−)-[2-(3-Chlorobenzyl)pyrrolidin-1-yl][3-hydroxy-5-(trifluoromethyl)quinoxalin-2-yl]methanone]
6.07 | O=C(c1nc2cc(Br)ccc2nc1O)N1CCCC1Cc1cccc(Cl)c1 (racemic) [Compound 1-37, (+/−)-(7-Bromo-3-hydroxyquinoxalin-2-yl)[2-(3-chlorobenzyl)pyrrolidin-1-yl]methanone]
5.74 | O=C(c1nc2ccccc2nc1O)N1CCCC1Cc1cccc(F)c1 (racemic) [Compound 1-51, (+/−)-[2-(3-Fluorobenzyl)pyrrolidin-1-yl](3-hydroxyquinoxalin-2-yl)methanone]
6.02 | O=C(c1nc2ccccc2nc1O)N1CCCC1Cc1cccc(Cl)c1 (stereo not drawn) [Compound 1-99]
6.30 | N#Cc1ccc2nc(C(=O)N3CCCC3Cc3cccc(Cl)c3)c(O)nc2c1 (racemic) [Compound 1-31, (+/−)-2-[2-(3-Chlorobenzyl)pyrrolidine-1-carbonyl]-3-hydroxyquinoxaline-6-carbonitrile]
6.22 | O=C(c1nc2cccnc2nc1O)N1CCCC1Cc1cccc(Cl)c1 (racemic) [Compound 1-33, (+/−)-[2-(3-Chlorobenzyl)pyrrolidin-1-yl](3-hydroxypyrido[3,2-b]pyrazin-2-yl)methanone]
7.62 | O=C(c1nc2ccc(SC(F)(F)F)cc2nc1O)N1CCCC1Cc1cccc(Cl)c1 (racemic) [Compound 1-23, (+/−)-[2-(3-Chlorobenzyl)pyrrolidin-1-yl][3-hydroxy-6-(trifluoromethylthio]quinoxalin-2-yl)methanone]
6.26 | O=C(c1nc2ccc(C(F)(F)F)cc2nc1O)N1CCCC1Cc1ccc(Cl)c(Cl)c1 (stereo not drawn) [Compound 1-164]
6.02 | O=C(c1nc2cc(OC(F)(F)F)ccc2nc1O)N1CCCC1Cc1cccc(Cl)c1 (racemic) [Compound 1-20, (+/−)-[2-(3-Chlorobenzyl)pyrrolidin-1-yl][3-hydroxy-7-(trifluoromethoxy)quinoxalin-2-yl]methanone]
6.52 | O=C(c1nc2cc(S(=O)(=O)C(F)(F)F)ccc2nc1O)N1CCCC1Cc1cccc(Cl)c1 (racemic) [Compound 1-24, (+/−)-[2-(3-Chlorobenzyl)pyrrolidin-1-yl][3-hydroxy-7-(trifluoromethylsulfonyl)quinoxalin-2-yl]methanone]
5.09 | O=C(c1nc2ccccc2nc1O)N1CCCC[C@@H]1Cc1cccc(Cl)c1 [Compound 7-7, (R)-(2-(3-chlorobenzyl)piperidin-1-yl)(3-hydroxyquinoxalin-2-yl)methanone]
6.34 | O=C(c1nc2ccc(I)cc2nc1O)N1CCCC1Cc1cccc(Cl)c1 (racemic) [Compound 1-19, (+/−)-[2-(3-Chlorobenzyl)pyrrolidin-1-yl](3-hydroxy-6-iodoquinoxalin-2-yl)methanone]
4.65 | COc1cc2nc(O)c(C(=O)N3CCCC3Cc3cccc(Cl)c3)nc2cc1OC (racemic) [Compound 1-38, (+/−)-[2-(3-Chlorobenzyl)pyrrolidin-1-yl](3-hydroxy-6,7-dimethoxyquinoxalin-2-yl)methanone]
6.20 | O=C(c1nc2cc(I)ccc2nc1O)N1CCCC1Cc1cccc(Cl)c1 (racemic) [Compound 1-18, (+/−)-[2-(3-Chlorobenzyl)pyrrolidin-1-yl](3-hydroxy-7-iodoquinoxalin-2-yl)methanone]
7.10 | O=C(c1nc2cc(F)c(F)cc2nc1O)N1CCCC1Cc1cccc(Cl)c1 (racemic) [Compound 1-2, (+/−)-[2-(3-chlorobenzyl)pyrrolidin-1-yl](6,7-difluoro-3-hydroxyquinoxalin-2-yl)methanone]
5.31 | COc1ccc2nc(O)c(C(=O)N3CCCC3Cc3cccc(Cl)c3)nc2c1 (racemic) [Compound 1-27, (+/−)-[2-(3-Chlorobenzyl)pyrrolidin-1-yl](3-hydroxy-7-methoxyquinoxalin-2-yl)methanone]
6.60 | O=C(c1nc2ccccc2nc1O)N1CCC[C@H]1Cc1cc(Cl)cc(Cl)c1 [Compound 8-6, (S)-(2-(3,5-dichlorobenzyl)pyrrolidin-1-yl)(3-hydroxyquinoxalin-2-yl)methanone]
5.92 | O=C(c1nc2ccccc2nc1O)N1CCCC[C@H]1Cc1cccc(Cl)c1 [Compound 7-8, (S)-(2-(3-chlorobenzyl)piperidin-1-yl)(3-hydroxyquinoxalin-2-yl)methanone]
7.66 | O=C(c1nc2cccc(Cl)c2nc1O)N1CCCC1Cc1cccc(F)c1 (stereo not drawn) [Compound 1-161]
6.70 | O=C(c1nc2ccc(C(F)(F)F)cc2nc1O)N1CCCC1Cc1cccc(Cl)c1 (racemic) [Compound 1-39, (+/−)-[2-(3-Chlorobenzyl)pyrrolidin-1-yl][3-hydroxy-6-(trifluoromethyl)quinoxalin-2-yl]methanone]
6.39 | O=C(c1nc2cc(Cl)ccc2nc1O)N1CCCC1Cc1cccc(Cl)c1 (racemic) [Compound 1-9, (+/−)-(7-Chloro-3-hydroxyquinoxalin-2-yl)[2-(3-chlorobenzyl)pyrrolidin-1-yl]methanone]

Continued, compound first:

SMILES | pKd
CN(CCc1cccc(Cl)c1)C(=O)c1nc2ccccc2nc1O [Compound 1-156] | 5.57
O=C(c1nc2ccccc2nc1O)N1CCCC1COc1ccc(F)cc1 (racemic) [Compound 1-55, (+/−)-{2-[(4-fluorophenoxy)methyl]pyrrolidin-1-yl}(3-hydroxyquinoxalin-2-yl)methanone] | 4.64
Cc1ccc(CC2CCCN2C(=O)c2nc3ccccc3nc2O)cc1 (stereo not drawn) [Compound 1-117] | 5.01
O=C(c1nc2ccccc2nc1O)N1CCCC1Cc1ccccc1Cl (stereo not drawn) [Compound 1-115] | 5.74
COc1ccc(CCN(C)C(=O)c2nc3ccccc3nc2O)cc1OC [Compound 1-141] | 4.58
O=C(c1nc2ccccc2nc1O)N1CCCC1Cc1c(F)cccc1Cl (racemic) [Compound 1-52, (+/−)-[2-(2-Chloro-6-fluorobenzyl)pyrrolidin-1-yl](3-hydroxyquinoxalin-2-yl)methanone] | 5.25
O=C(c1nc2c(F)cc(F)cc2nc1O)N1CCC[C@H]1Cc1cc(Cl)cc(Cl)c1 [9-18, (S)-(2-(3,5-dichlorobenzyl)pyrrolidin-1-yl)(6,8-difluoro-3-hydroxyquinoxalin-2-yl)methanone] | 7.30
COc1cccc(CC2CCCN(C(=O)c3nc4ccccc4nc3O)C2)c1 (racemic) [Compound 1-85, (+/−)-(3-Hydroxyquinoxalin-2-yl)[3-(3-methoxybenzyl)piperidin-1-yl]methanone] | 4.96
O=C(c1nc2cc(Cl)c(Cl)cc2nc1O)N1CCCC1CC1CCCCC1 (stereo not drawn) [Compound 1-165] | 6.61
COc1ccccc1CC1CCCCN1C(=O)c1nc2ccccc2nc1O (racemic) [Compound 1-73, (+/−)-(3-Hydroxyquinoxalin-2-yl)[2-(2-methoxybenzyl)piperidin-1-yl]methanone] | 5.65
CCCN(CC1CC1)C(=O)c1nc2ccccc2nc1O [Compound 1-137] | 4.51
CCC(c1ccccc1)C1CCCN1C(=O)c1nc2ccccc2nc1O (racemic) [Compound 1-48, (+/−)-(3-Hydroxyquinoxalin-2-yl)[2-(1-phenylpropyl)pyrrolidin-1-yl]methanone] | 4.93
O=C(c1nc2ccccc2nc1O)N1CCCC1Cc1ccccc1 (stereo not drawn) [Compound 1-116] | 5.34
O=C(c1nc2ccccc2nc1O)N1CCCC(Cc2ccccc2)C1 (racemic) [Compound 1-83, (+/−)-(3-Benzylpiperidin-1-yl)(3-hydroxyquinoxalin-2-yl)methanone] | 4.79
O=C(c1nc2ccccc2nc1O)N1CCCCC1Cc1ccc(F)cc1 (racemic) [Compound 1-79, (+/−)-[2-(4-Fluorobenzyl)piperidin-1-yl](3-hydroxyquinoxalin-2-yl)methanone] | 5.33
O=C(c1nc2cc(F)c(F)cc2nc1O)N1CCC[C@H]1Cc1cc(Cl)cc(Cl)c1 [Compound 8-12] | 8.89
O=C(c1nc2cc(F)cc(F)c2nc1O)N1CCC[C@H]1Cc1cc(Cl)cc(Cl)c1 [9-16, (S)-(2-(3,5-dichlorobenzyl)pyrrolidin-1-yl)(5,7-difluoro-3-hydroxyquinoxalin-2-yl)methanone] | 8.15
CN(Cc1cccc(Cl)c1)C(=O)c1nc2ccccc2nc1O [Compound 1-143] | 4.64
O=C(c1nc2ccccc2nc1O)N1CCCCC1Cc1cccc(C(F)(F)F)c1 (racemic) [Compound 1-75, (+/−)-(3-Hydroxyquinoxalin-2-yl) {2-[3-(trifluoromethyl)benzyl]piperidin-1-yl}methanone] | 6.01
O=C(c1nc2ccccc2nc1O)N1CCCC1Cc1ccccc1F (stereo not drawn) [Compound 1-153] | 5.54
